“Also recorded” adds a separate entry of the source.
Legend:
Abcd1-null mice [1] = experiment: ATP levels, NAD-NADH determination and pyruvate kinase activity in spinal cord; assay type: in vivo, mouse; details: Abcd1− mice fed 2 months with pioglitazone, 12 months of age
Description: (§1) Pioglitazone (Actos®) was mixed into AIN-76A chow from Dyets (Bethlehem, Pa.) at 0.012% w/w, corresponding to a dose of 9 mg/kg/day per mice [Yan Q. et al., J. Neurosci. 2003, 23, 7504-7509]. […] .
To determine ATP levels, mice were sacrificed by cervical dislocation and spinal cords immediately frozen in liquid nitrogen and stored at −80° C. ATP was extracted with cold perchloric acid (10%) from 10 mg of spinal cord, neutralized with KOH and centrifugated [Khan H. A. et al., J. Biosci. 2003, 28, 379-382]. Then, ATP concentrations were quantified in triplicate per animal using the ATPlite 1 step (PerkinElmer) according to the manufacturer's protocol. Data were normalized to mg of proteins. All assays were performed in triplicate.
NAD^+ and NADH were quantified by the NAD cycling assay and pyruvate kinase activity was determined by a spectrophotometrical method as previously described [Galino J. et al., Antiox. Redox Signal 2011, 15, 2095-2107].

Abcd1-null mice [2] = experiment: Western blot of mitochondrial and antioxidant proteins in spinal cord; assay type: in vivo, mouse; details: Abcd1− mice fed 2 months with pioglitazone
Excerpt: The following antibodies were used for Western Blots: anti-mouse NADH-ubiquinol oxidoreductase (NDUFB8: complex I): dilution 1/2000 (Molecular Probes); anti-mouse anti-Porin 31HL (VDAC or Voltage Dependant Anion Channel): dilution 1/1000 (Calbiochem); anti-rabbit DNP: dilution 1/100 (Invitrogen); anti-mouse PGC-1a: dilution 1/1000 (ST1202, Calbiochem); anti-rabbit SIRT1 for mouse: dilution 1/500 (12193, Abcam); anti-rabbit SIRT1 for human: dilution 1/500 (32441, Abcam) and anti-mouse γ-tubulin: dilution 1/5000 (T6557, clone GTU-88, Sigma). Goat anti-rabbit IgG linked to horseradish peroxidase, dilution: 1/15000 (P0448, Dako, Glostrup, Denmark) and Goat anti-mouse IgG linked to horseradish peroxidase, dilution: 1/15000 (G21040, Invitrogen) have been used as secondary antibodies.
as §1
Tissues were removed from euthanized mice and flash-frozen on liquid nitrogen. Frozen tissues were homogenized in RIPA buffer boiled for 5 min and centrifuged. We measured protein concentration of the supernatant with a BCA (bicinchoninic acid) Protein Assay Kit (Pierce). 10 to 100 μg were loaded onto each lane of 10% polyacrylamide gels for 60 min at […]. Resolved proteins were transferred to nitrocellulose. Proteins were detected with ECL western blotting analysis system (Amersham Biosciences).

SIRT1 [3] = experiment: SIRT1 fluorometric activity assay on spinal cord protein; assay type: in vivo, mouse; details: Abcd1− mice fed 2 months with pioglitazone, 12 months of age, FIG. 13
Description: as §1
We used a SIRT1 fluorometric assay kit (BIOMOL) based on the generation of a fluorophore via the NADtdependent deacetylation by SIRT1 of its substrate, which is a peptide comprising amino acids 379-382 of human p53 (Arg-His-Lys-Lys(Acetyl) (SEQ ID NO: 7) [Howitz K. T. et al., Nature 2003, 425, 191-196; and Vaziri H. et al., Cell 2001, 107, 149-159]. The assay's fluorescence signal is generated in proportion to the amount of Lys-382 deacetylation [Chabi B. et al., J. Appl. Physiol. 2009, 107, 1730-1735]. Briefly, 25 μg of total protein were incubated with Fluor de Lys-Sirt1 substrate (100 μM) and NAD^+ (100 μM) at 37° C. for 30 min in a final volume of 50 μl. The reaction was stopped by the addition of 50 μl of developer reagent and nicotinamide (2 mM) and the fluorescence was subsequently monitored for 30 min at 360 nm (excitation) and 460 nm (emission).

Abcd1-null mice [4] = experiment: GC/MS measurement of oxidative lesion markers in spinal cord proteins; assay type: in vivo, mouse; details: Abcd1− mice fed 2 months with pioglitazone, FIG. 15a
Description: as §1

[5] = system: Abcd1−/Abcd2−/− (DKO) mice; experiment: Horizontal bar cross test; details: after 2 months of treatment, FIG. 19
Description: We set up a preclinical trial to assess the effect of pioglitazone on the progression of clinical signs using DKO null mice as the model Animals were randomly assigned to one of the following groups.
The bar cross test was carried out using a wooden bar of 100 cm in length and 2 cm in width (diameter). This bar is just wide enough for the mice to stand on with their hind feet hanging over the edge such that any slight lateral misstep will result in a slip. […] Bar cross test was performed basically as previously described [Lopez-Erauskin J. et al., Ann.
Mice were evaluated by the treadmill test and the bar-cross at the start and re-scored after 2 (i.e 15 months of age), and 4 months (i.e. 17 months of age) of the treatment.

Abcd1-null mice [6] = experiment: Relative gene expression by quantitative RT-PCR in spinal cord; assay type: in vivo, mouse; details: Abcd1− mice fed 2 months with pioglitazone, 12 months of age, FIG. 12
Description: as §1
First tissues were lysed using Trizol reagent (Invitrogen), then total RNA was extracted using RNeasy Kit (Qiagen). Lysis and extraction were performed according to the manufacturer's instructions. Total DNA from tissues was extracted using Gentra Puregene Tissue Kit (Qiagen) according to the manufacturer's instructions.
[…] of RNA was transcribed into cDNA using Superscript II reverse transcription reagents in a final volume of 25 μl (Invitrogen). A TaqMan real time PCR was performed within the ABI PRISM 7300HT sequence detection system using the TaqMan Universal PCR master mix and the standardized primers for mouse SIRT1 (Mm00490758) PGC-1α (Mm00447183), PGC-1β (Mm01258518), ERRα (Mm00433143), NRF-1 (Mm00447996), TFAM (Mm00447485), TFB1M (Mm00524825) and TFB2M (Mm01620397). To measure gene expression and mtDNA abundance 0.1 to 0.2 μl of cDNA and 100 ng of DNA were respectively used.
To quantify mouse and human mtDNA content, two probes (mouse cytochrome b (cytb) (Gene ID: 17711) and human cytochrome c […] subunit II (COXII) (Gene ID: 4513) were respectively designed (Custom TaqMan Gene Expression Assays; Applied Biosystems). The sequences for mouse cytb primers were: […] (SEQ ID NO: 1) (forward) and […] (SEQ ID NO: 2) (reverse) and the FAM-labeled probe was TTGCAACTATAGCAACAG (SEQ ID NO: 3). The sequences for human COXII primers were: […] (SEQ ID NO: 4) (forward) and […] (SEQ ID NO: 5) (reverse) and the FAM-labeled probe was AAATCTGTGGAGCAAACC (SEQ ID NO: 6). Quantification of mtDNA was referred to nuclear DNA as determined by the amplification of the intronless nuclear gene C/EBPα. (Mouse and human CEBPα are respectively: Mm00514283, Hs00269972.). Each sample was run in duplicate, and the mean value of the duplicate was used to calculate the mRNA expression of the genes of interest which were normalized to that of the reference control (18S, Hs99999901) using the comparative (2^−ΔCt) method, according to the manufacturer's instructions.

SIRT1 [7] = experiment: SIRT1 immunoprecipitation and carbonyl (DNPH) measurement in spinal cord; assay type: in vivo, mouse; details: Abcd1− mice fed 2 months with pioglitazone, 12 months of age, FIG. 13
Description: as §1
Since the specific carbonylated SIRT1 antibody is not available, SIRT1 has been immunoprecipitated to measure carbonyl levels, as earlier described [Caito S. et al., Faseb J. 2010, 24, 3145-3159]. Protein (200 μg) extracted from whole spinal cord in a final volume of 400 μl RIPA buffer was incubated for 1 h with SIRT1 antibody [12193, (Abcam)] ((Abcam, 12193), dilution 1:80). Protein A sepharose (Amersham) was suspended in PBS for 1 h then blocked in BSA (1%) for 1 h. Protein A sepharose (50 μl ) was added to each sample and left overnight at 4° C. on a rotator. The samples are then centrifuged at 13,000 rpm at 4 ° C. for 5 min. […] Neural. 2011, 70, 84-92].

[8] = system: Abcd1−/Abcd2−/− (DKO) mice; experiment: Immunohistochemistry / histology of dorsal spinal cord (axonal degeneration); details: pioglitazone 4 months (13 to 17 months of age)
Description: We set up a preclinical trial to assess the effect of pioglitazone on the progression of clinical signs using DKO null mice as the model Animals were randomly assigned to one of the following groups. […] We treated animals for 4 months starting at 13 months of age in order to start treatment at the onset of clinical signs [Lopez-Erauskin J. et al., Ann.
Spinal cords were harvested from 18 month-old wild type (WT), Abcd1^−/Abcd2^−/− (DKO) and Abcd1^−/Abcd2^−/− fed with pioglitazone for 4 months (DKO+PIO), after perfusion with PFA 4%, basically as described [Lopez-Erauskin J. et al., Ann. […] Spinal cords were embedded in paraffin and serial sections, 5 μm thick, were cut in a transversal or longitudinal plane.
The number of abnormal specific profiles was counted at every 10 sections for each particular stain. At least three sections corresponding to the dorsal columns of the spinal cord were analysed per animal and per stain. Results were expressed as mean values±standard deviations.
Immunohistochemistry experiments were performed.

[9] = Weight and food intake during dietary treatment; assay type: in vivo, mouse; details: both protocols of treatment (Abcd1-null 2 months; DKO 4 months), 9 mg/kg/day in chow
Description: Pioglitazone (Actos®) was mixed into AIN-76A chow from Dyets (Bethlehem, Pa.) at 0.012% w/w, corresponding to a dose of 9 mg/kg/day per mice [Yan Q. et al., J. Neurosci. 2003, 23, 7504-7509]. […] Neurol. […] Mol. Genet. […] Mol. Genet. […] Mol. Genet. 2005, 14, 3565-3577].

[10] = Yamada T. et al. 2000; cited from earlier work
X-ALD patients = details: recent study in X-ALD patients; cited from earlier work
[11] = spinal cord, 12 months of age, FIG. 11

With `CCc1ccc(CCOc2ccc(CC3SC(=O)NC3=O)cc2)nc1` (racemic) [pioglitazone, 5-(4-[2-(5-ethylpyridin-2-yl)ethoxy]benzyl)thiazolidine-2,4-dione] the ATP levels (Abcd1-null mice [1]; FIG. 14a) was “normalised”, the NADH levels (Abcd1-null mice [1]; FIG. 14b) was “normalised” and the “activity of pyruvate kinase” value (Abcd1-null mice [1]; FIG. 14c) was “normalised”. The GPX1 protein level (Abcd1-null mice [2]; FIG. 15b) was “normalized”, the NDUFB8 protein level (Abcd1-null mice [2]; [11]) was “increased” and the VDAC protein level (Abcd1-null mice [2]; [11]) was “increased”. For the same molecule, the SIRT1 activity (SIRT1 [3]) was “rescued; also recorded: normalized”, the AASA content (Abcd1-null mice [4]) was “normalized” and the “CEL (glycoxidative) content” value (Abcd1-null mice [4]) was “normalized”. For the same molecule, the GSA content (Abcd1-null mice [4]) was “normalized”, the “MDAL (lipoxidative) content” value (Abcd1-null mice [4]) was “normalized” and the number of slips [5] was “full normalisation”. The “time used to cross the bar” value [5] was “full normalisation”, the “NRF1 mRNA” value (Abcd1-null mice [6]) was “increased” and the SIRT1 expression (Abcd1-null mice [6]) was “no effect”. For the same molecule, the “TFAM mRNA” value (Abcd1-null mice [6]) was “increased”, the “expression of PGC-1α mRNA” value (Abcd1-null mice [6]) was “increased” and the “levels of carbonylation on SIRT1 protein (SIRT1 oxidation)” value (SIRT1 [7]) was “lowered; also recorded: normalized”. The “number of reactive astrocytes” value ([8]; FIG. 16) was “strikingly reduced to control levels”, the “number of reactive microglia” value ([8]; FIG. 16) was “strikingly reduced to control levels” and the “accumulation of markers of axonal damage (APP, synaptophysin in axonal swellings)” value ([8]; FIG. 16, 17) was “strikingly reduced to control levels”. For the same molecule, the food intake [9] was “no effect” and the weight [9] was “no effect”.
For `CC[C@H](C)C(=O)O[C@H]1C[C@@H](C)C=C2C=C[C@H](C)[C@H](CC[C@@H]3C[C@@H](O)CC(=O)O3)[C@H]21` [Lovastatin], the effect in vitro [10] is listed as “some effect”.
For `CCCC(CCC)C(=O)O` [VPA, valproic acid], the adverse effects (X-ALD patients) is listed as “adverse effects such as trembling”.

— patent US8865747B2, “Pioglitazone for use in the treatment of adrenoleukodystrophy” (Fundació Institut D'Investigació Biomèdica de Bellvitge …, priority 2012, dated 2014)
